# Experimental data: patent publication US20240208930A1, “CRYSTALLINE FORM OF SPHINGOSINE-1-PHOSPHATE RECEPTOR AGONIST” (LG CHEM, LTD., priority 2021, published 2024)
# Entries after “also recorded” stand apart in the source; their conditions may differ.
# Key:
# [1] = Stability test (XRPD, naked eye observation, HPLC) after storage under accelerated and severe conditions; format: physicochemical
# Experimental: To investigate the stability of Crystalline Form A, after storage for 2 weeks under accelerated (40° C./75% RH) and severe (80° C.) conditions, the physical stability was confirmed by naked eye observation and XRD measurement (FIG. 7), and chemical stability was confirmed by the analysis of the sample purity using HPLC (Table 3). HPLC equipment and analysis methods are represented in Table 1.
# A stability test was carried out in the same manner as in Example 2. • (5) Results
# [2] = DVS (dynamic vapor sorption); format: physicochemical
# Experimental: Moisture sorption/desorption data were collected on a DVS Intrinsic instrument (Surface Measurement Systems). Samples were not dried prior to analysis. Sorption and desorption data were collected over the range of 5% to 95% RH with 10% RH increments under nitrogen. The equilibrium criterion used in the analysis was less than 0.0100% change in weight in 5 minutes with a maximum equilibration time of 3 hours. Data on the initial moisture content of the samples were not corrected. The results are represented in FIG. 6.
# [3] = severe condition (80° C.), 2 weeks
Structure (SMILES),time physically stable ([1]; 80° C.),"sample purity using HPLC ([1]; Accelerated condition (40° C./75% RH), 1 week) [%]","sample purity using HPLC ([1]; Accelerated condition (40° C./75% RH), 2 weeks) [%]","sample purity using HPLC ([1]; Accelerated condition (40° C./75% RH), 3 days) [%]",sample purity using HPLC ([1]; Initial) [%],"sample purity using HPLC ([1]; Severe condition (80° C.), 1 week) [%]","sample purity using HPLC ([1]; Severe condition (80° C.), 3 days) [%]",naked eye observation ([1]; after 2 weeks of severe condition (80° C.)),"amount of impurities in the sample [1, 3]","sample purity using HPLC [1, 3] [%]","change in the crystal form in XRPD ([1]; 2 weeks, accelerated (40° C./75% RH) and severe (80° C.) conditions)","physical/chemical stability ([1]; 2 weeks, accelerated (40° C./75% RH) and severe (sealed state, 80° C.) conditions)",XRPD pattern of the solid retrieved after DVS [2]
"CC(C)n1nc(Cl)c2cc(COc3ccc4c(c3)CCC(CN3CCC(C(=O)O)CC3)=C4Cl)ccc21 [amorphous form, 1-[1-chloro-6-(3-chloro-1-isopropyl-1H-indazol-5-ylmethoxy)-3,4-dihydro-naphthalen-2-ylmethyl]-piperidine-4-carboxylic acid]",at least 2 weeks,98.1,98.8,98.8,100.7,87.2,90.7,free-flowing particles that were broken when struck and bubble-like yellow masses,increased,77.3,–,–,–
"CC(C)n1nc(Cl)c2cc(COc3ccc4c(c3)CCC(CN3CCC(C(=O)O)CC3)=C4Cl)ccc21 [Crystalline Form A, 1-[1-chloro-6-(3-chloro-1-isopropyl-1H-indazol-5-ylmethoxy)-3,4-dihydro-naphthalen-2-ylmethyl]-piperidine-4-carboxylic acid]",–,–,–,–,–,–,–,–,–,–,no change in the crystal form,physically/chemically stable; also recorded: physical/chemical stability was confirmed,XRPD patterns similar to the initial ones
